Legend:
RAW264.7 cells = assay: Anti-inflammatory effect: nitric oxide (NO) formation inhibition, GRIESS method, LPS stimulus; format: cell-based, mouse; settings: RAW264.7, 10 ppm, LPS 1 μg, 24 hours
Description: An anti-inflammatory effect was confirmed with respect to above Examples 1 to 4 and Comparative Examples 1 to 8.
In order to confirm the anti-inflammatory effect and skin trouble alleviation effect of Examples 1 to 4 and Comparative Examples 1 to 8, an experiment on nitric oxide (NO) formation inhibitory power was performed with a GRIESS method using RAW264.7 cell lines (ATCC number: CRL-2278).
Specifically, RAW264.7 cells, which are mouse macrophages, were subcultured several times and placed in a 24-well plate so that 3×10^5 cells were put into each well, and then incubated for 24 hours. Then, Examples 1 to 4 and Comparative Examples 1 to 8 were replaced with a diluted cell medium at a concentration of 10 ppm. At this time, L-NMMA (L-NG-Monomethylarginine), a NO-production inhibitor, was treated together as a positive control and incubated for 30 minutes, and then 1 μg of lipopolysaccharide (LPS) was treated as a stimulus and cultured for 24 hours. 100 μl of the supernatant was transferred to a 96-well plate and reacted at room temperature for 10 minutes with the addition of 100 μl of GRIESS solution, so as to measure the absorbance at 540 nm, thereby determining an NO inhibitory effect of the compound of Formula 1, and the results are shown in table 4 below.

[1] = Antioxidant effect: free radical scavenging by DPPH method; format: biochemical; settings: 30 minutes, 517 nm, based on vitamin C 0.1% as 100%
Description: An antioxidant effect experiment was performed to confirm an antioxidant effect of Examples 1 to 4 and Comparative Examples 1 to 8 through a free radical scavenging effect using a DPPH method according to a known method. 100 μl of Examples 1 to 4 and Comparative Examples 1 to 8 were dispensed into 96 microplates, and 10 μl of a 2,2-diphenyl-1-picrylhydrazyl (DPPH) solution dissolved in ethanol to reach 1 mM was added thereto. After a reaction in 30 minutes later at room temperature, absorbance was measured at 517 nm to measure a free radical scavenging activity. An experiment was performed with vitamin C at a concentration of 0.1% as a control group along with the compositions of Examples 1 to 4 and Comparative Examples 1 to 8. The results are shown in table 3 based on the free radical scavenging effect of vitamin C as 100%.

## CNC(=N)NCCC[C@H](N)C(=O)O [L-NMMA, L-NG-Monomethylarginine]
RAW264.7 cells
  NO production inhibition rate (%): 39.14%

## O=C1O[C@H]([C@@H](O)CO)C(O)=C1O [vitamin C]
[1]
  Free radical scavenging effect (%): 100%

Source: patent US12427103B2, “Cosmetic composition containing Hibiscus manihot l. extract and method for preparing the same” (ALL IN ON Co., Ltd, priority 2022, dated 2025)
